Experimental data reported in publication PMC11240139, “Exploring the antitumor potential of novel quinoline derivatives via tubulin polymerization inhibition in breast cancer; design, synthesis and molecular docking” (RSC Advances, 2024).

Legend:
[1] = tested on: NCI-H522 (non-small cell lung cancer); assay: NCI-60 SRB cytotoxicity screen; format: cell-based; conditions: Homo sapiens; NCI-H522, single dose 10 μM; read-out: growth inhibition (GI%)
SR (leukemia) = assay: NCI-60 SRB cytotoxicity screen; format: cell-based; conditions: single dose 10 μM, read-out: growth inhibition (GI%)
UACC-257 (melanoma) = assay: NCI-60 SRB cytotoxicity screen; format: cell-based; conditions: Homo sapiens; UACC-257, single dose 10 μM; read-out: growth inhibition (GI%)
COLO 205 (colon cancer) = assay: NCI-60 SRB cytotoxicity screen; format: cell-based; conditions: Homo sapiens; COLO 205, single dose 10 μM; read-out: growth inhibition (GI%)
[2] = tested on: EKVX (non-small cell lung cancer); assay: NCI-60 SRB cytotoxicity screen; format: cell-based; conditions: Homo sapiens, single dose 10 μM, read-out: growth inhibition (GI%)
KM12 (colon cancer) = assay: NCI-60 SRB cytotoxicity screen; format: cell-based; conditions: Homo sapiens; KM12, single dose 10 μM; read-out: growth inhibition (GI%)
T-47D (breast cancer) = assay: NCI-60 SRB cytotoxicity screen; format: cell-based; conditions: Homo sapiens, T47D, single dose 10 μM, read-out: growth inhibition (GI%)
SK-OV-3 (ovarian cancer) = assay: NCI-60 SRB cytotoxicity screen; format: cell-based; conditions: Homo sapiens; SK-OV-3, single dose 10 μM; read-out: growth inhibition (GI%)
[3] = tested on: A549/ATCC (non-small cell lung cancer); assay: NCI-60 SRB cytotoxicity screen; format: cell-based; conditions: Homo sapiens, single dose 10 μM, read-out: growth inhibition (GI%)
SF-268 (CNS cancer) = assay: NCI-60 SRB cytotoxicity screen; format: cell-based; conditions: Homo sapiens; SF-268, single dose 10 μM; read-out: growth inhibition (GI%)
OVCAR-8 (ovarian cancer) = assay: NCI-60 SRB cytotoxicity screen; format: cell-based; conditions: Homo sapiens; OVCAR-8, single dose 10 μM; read-out: growth inhibition (GI%)
LOX IMVI (melanoma) = assay: NCI-60 SRB cytotoxicity screen; format: cell-based; conditions: Homo sapiens, single dose 10 μM, read-out: growth inhibition (GI%)
MALME-3M (melanoma) = assay: NCI-60 SRB cytotoxicity screen; format: cell-based; conditions: Homo sapiens, single dose 10 μM, read-out: growth inhibition (GI%)
SF-295 (CNS cancer) = assay: NCI-60 SRB cytotoxicity screen; format: cell-based; conditions: Homo sapiens; SF-295, single dose 10 μM; read-out: growth inhibition (GI%)
ACHN (renal cancer) = assay: NCI-60 SRB cytotoxicity screen; format: cell-based; conditions: Homo sapiens, single dose 10 μM, read-out: growth inhibition (GI%)
[4] = tested on: NCI/ADR-RES (ovarian cancer); assay: NCI-60 SRB cytotoxicity screen; format: cell-based; conditions: Homo sapiens, single dose 10 μM, read-out: growth inhibition (GI%)
HS 578T (breast cancer) = assay: NCI-60 SRB cytotoxicity screen; format: cell-based; conditions: Homo sapiens, single dose 10 μM, read-out: growth inhibition (GI%)
UACC-62 (melanoma) = assay: NCI-60 SRB cytotoxicity screen; format: cell-based; conditions: Homo sapiens; UACC-62, single dose 10 μM; read-out: growth inhibition (GI%)
IGROV1 (ovarian cancer) = assay: NCI-60 SRB cytotoxicity screen; format: cell-based; conditions: Homo sapiens, IGROV-1; IGROV1, single dose 10 μM; read-out: growth inhibition (GI%)
DU-145 (prostate cancer) = assay: NCI-60 SRB cytotoxicity screen; format: cell-based; conditions: Homo sapiens; DU-145, single dose 10 μM; read-out: growth inhibition (GI%)
BT-549 (breast cancer) = assay: NCI-60 SRB cytotoxicity screen; format: cell-based; conditions: Homo sapiens; BT-549, single dose 10 μM; read-out: growth inhibition (GI%)
HCT-15 (colon cancer) = assay: NCI-60 SRB cytotoxicity screen; format: cell-based; conditions: Homo sapiens; HCT-15, single dose 10 μM; read-out: growth inhibition (GI%)
RXF 393 (renal cancer) = assay: NCI-60 SRB cytotoxicity screen; format: cell-based; conditions: Homo sapiens; RXF 393, single dose 10 μM; read-out: growth inhibition (GI%)
[5] = tested on: HOP-62 (non-small cell lung cancer); assay: NCI-60 SRB cytotoxicity screen; format: cell-based; conditions: Homo sapiens; HOP-62, single dose 10 μM; read-out: growth inhibition (GI%)
OVCAR-5 (ovarian cancer) = assay: NCI-60 SRB cytotoxicity screen; format: cell-based; conditions: Homo sapiens; OVCAR-5, single dose 10 μM; read-out: growth inhibition (GI%)
RPMI-8226 (leukemia) = assay: NCI-60 SRB cytotoxicity screen; format: cell-based; conditions: Homo sapiens; RPMI-8226, single dose 10 μM; read-out: growth inhibition (GI%)
CCRF-CEM (leukemia) = assay: NCI-60 SRB cytotoxicity screen; format: cell-based; conditions: Homo sapiens, single dose 10 μM, read-out: growth inhibition (GI%)
SNB-75 (CNS cancer) = assay: NCI-60 SRB cytotoxicity screen; format: cell-based; conditions: Homo sapiens, SNB-75, SNB-75, single dose 10 μM; read-out: growth inhibition (GI%)
K-562 (leukemia) = assay: NCI-60 SRB cytotoxicity screen; format: cell-based; conditions: Homo sapiens; K-652 [sic], single dose 10 μM; read-out: growth inhibition (GI%)
SK-MEL-2 (melanoma) = assay: NCI-60 SRB cytotoxicity screen; format: cell-based; conditions: Homo sapiens; SK-MEL-2, single dose 10 μM; read-out: growth inhibition (GI%)

| Structure (SMILES) | inhibition at 10 µM [1] | inhibition at 10 µM (UACC-257 (melanoma)) | inhibition at 10 µM (COLO 205 (colon cancer)) | inhibition at 10 µM [2] | inhibition at 10 µM (KM12 (colon cancer)) | inhibition at 10 µM (T-47D (breast cancer)) | inhibition at 10 µM (SK-OV-3 (ovarian cancer)) | inhibition at 10 µM [3] | inhibition at 10 µM (SF-268 (CNS cancer)) | inhibition at 10 µM (OVCAR-8 (ovarian cancer)) | inhibition at 10 µM (LOX IMVI (melanoma)) | melting point | inhibition at 10 µM (MALME-3M (melanoma)) | inhibition at 10 µM (SF-295 (CNS cancer)) | inhibition at 10 µM (ACHN (renal cancer)) | inhibition at 10 µM [4] | inhibition at 10 µM (HS 578T (breast cancer)) | inhibition at 10 µM (UACC-62 (melanoma)) | inhibition at 10 µM (IGROV1 (ovarian cancer)) | inhibition at 10 µM (DU-145 (prostate cancer)) | further results |
| --- | --- | --- | --- | --- | --- | --- | --- | --- | --- | --- | --- | --- | --- | --- | --- | --- | --- | --- | --- | --- | --- |
| CCc1cccc2cc(C=CC(=O)c3ccc(OC)cc3)c(Cl)nc12 [Compound 3a, 3-(2-Chloro-8-ethylquinolin-3-yl)-1-(4-methoxyphenyl)prop-2-en-1-one] | 21.1% | < 10% | < 10% | < 10% | < 10% | 44% | < 10% | < 10% | < 10% | < 10% | 11.3% | 138 to 140 °C | < 10% | < 10% | < 10% | < 10% | < 10% | 17.1% | < 10% | < 10% | inhibition at 10 µM (SR (leukemia)): 38.4%; inhibition at 10 µM (BT-549 (breast cancer)): 22.5%; inhibition at 10 µM (HCT-15 (colon cancer)): < 10%; inhibition at 10 µM (RXF 393 (renal cancer)): 23.8%; inhibition at 10 µM [5]: < 10%; inhibition at 10 µM (OVCAR-5 (ovarian cancer)): < 10%; inhibition at 10 µM (RPMI-8226 (leukemia)): 22.1%; inhibition at 10 µM (CCRF-CEM (leukemia)): 26.9%; inhibition at 10 µM (SNB-75 (CNS cancer)): < 10%; inhibition at 10 µM (K-562 (leukemia)): < 10%; inhibition at 10 µM (SK-MEL-2 (melanoma)): < 10% |
| CCc1cccc2cc(C=CC(=O)c3ccc(Br)cc3)c(Cl)nc12 [Compound 3e, 1-(4-Bromophenyl)-3-(2-chloro-8-ethylquinolin-3-yl)prop-2-en-1-one] | < 10% | < 10% | < 10% | < 10% | < 10% | < 10% | < 10% | < 10% | < 10% | < 10% | < 10% | 210 to 212 °C | < 10% | < 10% | < 10% | < 10% | < 10% | < 10% | < 10% | < 10% | inhibition at 10 µM (BT-549 (breast cancer)): < 10%; inhibition at 10 µM (HCT-15 (colon cancer)): < 10%; inhibition at 10 µM (RXF 393 (renal cancer)): < 10%; inhibition at 10 µM [5]: < 10%; inhibition at 10 µM (OVCAR-5 (ovarian cancer)): < 10%; inhibition at 10 µM (RPMI-8226 (leukemia)): < 10%; inhibition at 10 µM (CCRF-CEM (leukemia)): < 10%; inhibition at 10 µM (SNB-75 (CNS cancer)): < 10%; inhibition at 10 µM (K-562 (leukemia)): < 10%; inhibition at 10 µM (SK-MEL-2 (melanoma)): < 10% |
